# Laboratory results reported in PubChem BioAssay AID2060904 (Molecular Pharmacology Branch, DTP, NCI, 2025).
# Several values for one entry are separate records, joined by “and”; a condition that tells them apart may be missing. Equal values may be shown once.
# Test system: 349418-098-R-PDC complex spheroid viability
# Assay: Anticancer human tumor 349418-098-R-PDC patient-derived lung adenocarcinoma cell line growth inhibition [RAS]
# Details: for viability, T/C: stronger effect = lower value
# Procedure, shortened: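 Agents were tested in combination matrices in half-log decrements from a top concentration at or near clinical Cmax (10 microM if undetermined). Targets were multi-cell spheroids of tumour lines plus HUVEC and MSC stromal cells.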
# [1] = curve of first compound, second compound 0.0316 µM
# [2] = curve of first compound, second compound 0.1 µM
# [3] = curve of first compound, second compound 0.316 µM
# [4] = curve of first compound, second compound 1 µM
# [5] = second compound 0.0316 µM, first compound 0.0316 µM
# [6] = second compound 0.0316 µM, first compound 0.1 µM
# [7] = second compound 0.0316 µM, first compound 0.316 µM
# [8] = second compound 0.0316 µM, first compound 1 µM
# [9] = second compound 0.1 µM, first compound 0.0316 µM
# [10] = second compound 0.1 µM, first compound 0.1 µM
# [11] = second compound 0.1 µM, first compound 0.316 µM
# [12] = second compound 0.1 µM, first compound 1 µM
# [13] = second compound 0.316 µM, first compound 0.0316 µM
# [14] = second compound 0.316 µM, first compound 0.1 µM
# [15] = second compound 0.316 µM, first compound 0.316 µM
# [16] = second compound 0.316 µM, first compound 1 µM
# [17] = second compound 1 µM, first compound 0.0316 µM
# [18] = second compound 1 µM, first compound 0.1 µM
# [19] = second compound 1 µM, first compound 0.316 µM
# [20] = second compound 1 µM, first compound 1 µM
# 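Also: spheroids exposed to compound for seven days before viability readout.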
smiles,measurement,setting,value
CCN1CCN(Cc2ccc(Nc3ncc(F)c(-c4cc(F)c5nc(C)n(C(C)C)c5c4)n3)nc2)CC1 + CCn1c(-c2cc(N3CCN(C)CC3)cnc2C(C)OC)c2c3cc(ccc31)-c1csc(n1)CC(NC(=O)C1CC1C)C(=O)N1CCCC(N1)C(=O)OCC(C)(C)C2,IC50,"curve of first compound, second compound 0.000949 µM",19.3 nM
same,IC50,"curve of first compound, second compound 0.003 µM",16.4 nM
same,IC50,"curve of first compound, second compound 0.00949 µM",17.1 nM
same,IC50,"curve of first compound, second compound 0.03 µM",21.8 nM
same,IC50,"curve of first compound, second compound 0.0949 µM",28.7 nM
same,IC50,"curve of first compound, second compound 0.3 µM",20.6 nM
same,"viability, T/C","second compound 0.000949 µM, first compound 0.00316 µM",96.6%
same,"viability, T/C","second compound 0.000949 µM, first compound 0.01 µM",68.5%
same,"viability, T/C","second compound 0.000949 µM, first compound 0.0316 µM",33.4%
same,"viability, T/C","second compound 0.000949 µM, first compound 0.1 µM",28.7%
same,"viability, T/C","second compound 0.000949 µM, first compound 0.316 µM",20.4%
same,"viability, T/C","second compound 0.000949 µM, first compound 1 µM",15.3%
same,"viability, T/C","second compound 0.003 µM, first compound 0.00316 µM",93.4%
same,"viability, T/C","second compound 0.003 µM, first compound 0.01 µM",59.7%
same,"viability, T/C","second compound 0.003 µM, first compound 0.0316 µM",38.5%
same,"viability, T/C","second compound 0.003 µM, first compound 0.1 µM",19.3%
same,"viability, T/C","second compound 0.003 µM, first compound 0.316 µM",20.3%
same,"viability, T/C","second compound 0.003 µM, first compound 1 µM",14%
same,"viability, T/C","second compound 0.00949 µM, first compound 0.00316 µM",103%
same,"viability, T/C","second compound 0.00949 µM, first compound 0.01 µM",63.4%
same,"viability, T/C","second compound 0.00949 µM, first compound 0.0316 µM",35.3%
same,"viability, T/C","second compound 0.00949 µM, first compound 0.1 µM",18.5%
same,"viability, T/C","second compound 0.00949 µM, first compound 0.316 µM",20%
same,"viability, T/C","second compound 0.00949 µM, first compound 1 µM",12.7%
same,"viability, T/C","second compound 0.03 µM, first compound 0.00316 µM",104%
same,"viability, T/C","second compound 0.03 µM, first compound 0.01 µM",85.5%
same,"viability, T/C","second compound 0.03 µM, first compound 0.0316 µM",33%
same,"viability, T/C","second compound 0.03 µM, first compound 0.1 µM",19.5%
same,"viability, T/C","second compound 0.03 µM, first compound 0.316 µM",23.5%
same,"viability, T/C","second compound 0.03 µM, first compound 1 µM",15%
same,"viability, T/C","second compound 0.0949 µM, first compound 0.00316 µM",92.7%
same,"viability, T/C","second compound 0.0949 µM, first compound 0.01 µM",54.4%
same,"viability, T/C","second compound 0.0949 µM, first compound 0.0316 µM",58.4%
same,"viability, T/C","second compound 0.0949 µM, first compound 0.1 µM",33.1%
same,"viability, T/C","second compound 0.0949 µM, first compound 0.316 µM",23.1%
same,"viability, T/C","second compound 0.0949 µM, first compound 1 µM",12.8%
same,"viability, T/C","second compound 0.3 µM, first compound 0.00316 µM",88.1%
same,"viability, T/C","second compound 0.3 µM, first compound 0.01 µM",60.1%
same,"viability, T/C","second compound 0.3 µM, first compound 0.0316 µM",42.8%
same,"viability, T/C","second compound 0.3 µM, first compound 0.1 µM",32.3%
same,"viability, T/C","second compound 0.3 µM, first compound 0.316 µM",22%
same,"viability, T/C","second compound 0.3 µM, first compound 1 µM",14.6%
CC(=O)OC12COC1CC(O)C1(C)C(=O)C(O)C3=C(C)C(OC(=O)C(O)C(NC(=O)OC(C)(C)C)c4ccccc4)CC(O)(C(OC(=O)c4ccccc4)C21)C3(C)C (stereo not drawn),"viability, T/C",compound 0.0316 µM,14.5% [middle of 4 runs]
same,"viability, T/C",compound 0.1 µM,14.6% [middle of 4 runs]
same,"viability, T/C",compound 0.316 µM,17.6% [middle of 4 runs]
same,"viability, T/C",compound 1 µM,15.2% [middle of 4 runs]
same,"viability, T/C",compound 3.16 µM,24.6% [middle of 4 runs]
same,"viability, T/C",compound 10 µM,25.8% [middle of 4 runs]
same,IC50,curve of compound,< 31.6 nM
CC(C)n1nc(-c2ccc3oc(N)nc3c2)c2c(N)ncnc21,"viability, T/C",compound 0.00316 µM,44.1% (2×) and 55.6% and 55.3%
same,"viability, T/C",compound 0.01 µM,17% [middle of 4 runs]
same,"viability, T/C",compound 0.0316 µM,8.74% [middle of 4 runs]
same,"viability, T/C",compound 0.1 µM,7.93% [middle of 4 runs]
same,IC50,curve of compound,3.6 nM [middle of 4 runs]
Cc1nc(N2CCC3(CC2)COC(C)C3N)c(CO)nc1Sc1ccnc(N)c1Cl (stereo not drawn) + C=CC(=O)N1CCN(c2nc(OCC3CCCN3C)nc3c(F)c(-c4nc(N)cc(C)c4C(F)(F)F)c(Cl)cc23)C(C)C1,IC50,"curve of first compound, second compound 0.00316 µM",> 10000 nM
same,IC50,"curve of first compound, second compound 0.01 µM",> 10000 nM
same,IC50,[1],> 10000 nM
same,IC50,[2],> 10000 nM
same,IC50,[3],> 10000 nM
same,IC50,[4],> 10000 nM
same,"viability, T/C","second compound 0.00316 µM, first compound 0.0316 µM",100%
same,"viability, T/C","second compound 0.00316 µM, first compound 0.1 µM",83.6%
same,"viability, T/C","second compound 0.00316 µM, first compound 0.316 µM",131%
same,"viability, T/C","second compound 0.00316 µM, first compound 1 µM",86.9%
same,"viability, T/C","second compound 0.00316 µM, first compound 3.16 µM",81.7%
same,"viability, T/C","second compound 0.00316 µM, first compound 10 µM",102%
same,"viability, T/C","second compound 0.01 µM, first compound 0.0316 µM",78.4%
same,"viability, T/C","second compound 0.01 µM, first compound 0.1 µM",80.5%
same,"viability, T/C","second compound 0.01 µM, first compound 0.316 µM",92.5%
same,"viability, T/C","second compound 0.01 µM, first compound 1 µM",92.5%
same,"viability, T/C","second compound 0.01 µM, first compound 3.16 µM",104%
same,"viability, T/C","second compound 0.01 µM, first compound 10 µM",98.3%
same,"viability, T/C",[5],84.3%
same,"viability, T/C",[6],107%
same,"viability, T/C",[7],87.1%
same,"viability, T/C",[8],73.6%
same,"viability, T/C","second compound 0.0316 µM, first compound 3.16 µM",120%
same,"viability, T/C","second compound 0.0316 µM, first compound 10 µM",99%
same,"viability, T/C",[9],82.8%
same,"viability, T/C",[10],64.9%
same,"viability, T/C",[11],92.5%
same,"viability, T/C",[12],87.3%
same,"viability, T/C","second compound 0.1 µM, first compound 3.16 µM",81.2%
same,"viability, T/C","second compound 0.1 µM, first compound 10 µM",82.9%
same,"viability, T/C",[13],81%
same,"viability, T/C",[14],89.2%
same,"viability, T/C",[15],73.4%
same,"viability, T/C",[16],81.7%
same,"viability, T/C","second compound 0.316 µM, first compound 3.16 µM",86%
same,"viability, T/C","second compound 0.316 µM, first compound 10 µM",87.1%
same,"viability, T/C",[17],105%
same,"viability, T/C",[18],76.5%
same,"viability, T/C",[19],95.8%
same,"viability, T/C",[20],108%
same,"viability, T/C","second compound 1 µM, first compound 3.16 µM",88.1%
same,"viability, T/C","second compound 1 µM, first compound 10 µM",105%
CCN1CCN(Cc2ccc(Nc3ncc(F)c(-c4cc(F)c5nc(C)n(C(C)C)c5c4)n3)nc2)CC1 + C#Cc1c(F)ccc2cc(O)cc(-c3ncc4c(N5CC6CCC(C5)N6)nc(OCC56CCCN5CC(F)C6)nc4c3F)c12,IC50,[1],7.9 nM
same,IC50,[2],30.5 nM
same,IC50,[3],18.2 nM
same,IC50,[4],12.3 nM
same,IC50,"curve of first compound, second compound 3.16 µM",10.3 nM
same,IC50,"curve of first compound, second compound 10 µM",< 3.16 nM
same,"viability, T/C","second compound 0.0316 µM, first compound 0.00316 µM",66.8%
same,"viability, T/C","second compound 0.0316 µM, first compound 0.01 µM",38.2%
same,"viability, T/C",[5],41.9%
same,"viability, T/C",[6],25.9%
same,"viability, T/C",[7],18%
same,"viability, T/C",[8],16.3%
same,"viability, T/C","second compound 0.1 µM, first compound 0.00316 µM",76.2%
same,"viability, T/C","second compound 0.1 µM, first compound 0.01 µM",77.7%
same,"viability, T/C",[9],47.6%
same,"viability, T/C",[10],25.7%
same,"viability, T/C",[11],22%
same,"viability, T/C",[12],14.4%
same,"viability, T/C","second compound 0.316 µM, first compound 0.00316 µM",78.2%
same,"viability, T/C","second compound 0.316 µM, first compound 0.01 µM",59.9%
same,"viability, T/C",[13],40.8%
same,"viability, T/C",[14],28.9%
same,"viability, T/C",[15],24.4%
same,"viability, T/C",[16],16.2%
same,"viability, T/C","second compound 1 µM, first compound 0.00316 µM",79.4%
same,"viability, T/C","second compound 1 µM, first compound 0.01 µM",49.6%
same,"viability, T/C",[17],37.8%
same,"viability, T/C",[18],33.5%
same,"viability, T/C",[19],20.5%
same,"viability, T/C",[20],19.9%
same,"viability, T/C","second compound 3.16 µM, first compound 0.00316 µM",74.1%
same,"viability, T/C","second compound 3.16 µM, first compound 0.01 µM",51.3%
same,"viability, T/C","second compound 3.16 µM, first compound 0.0316 µM",32.8%
same,"viability, T/C","second compound 3.16 µM, first compound 0.1 µM",29.1%
same,"viability, T/C","second compound 3.16 µM, first compound 0.316 µM",30.4%
same,"viability, T/C","second compound 3.16 µM, first compound 1 µM",16.6%
same,"viability, T/C","second compound 10 µM, first compound 0.00316 µM",26.7%
same,"viability, T/C","second compound 10 µM, first compound 0.01 µM",37.7%
same,"viability, T/C","second compound 10 µM, first compound 0.0316 µM",14.3%
same,"viability, T/C","second compound 10 µM, first compound 0.1 µM",12.5%
same,"viability, T/C","second compound 10 µM, first compound 0.316 µM",5.58%
same,"viability, T/C","second compound 10 µM, first compound 1 µM",2.78%
